Data from US9539256B2 (THE BOARD OF REGENTS OF THE UNIVERSITY OF TEXAS SYSTEM, priority 2012, dated 2017).
Entries after “also recorded” stand apart in the source; their conditions may differ.

How the values were obtained:
R. australia = R. australia infection of HUVEC cells, immunofluorescence; type: cell-based; conditions: 24 hours post infection
Protocol: FIG. 22. ESI-09 treatment suppresses cellular entry of R. australia. HUVEC cells treated with vehicle or ESI-09 were infected with R. australia. The levels of R. australia (Red) and EPAC1 (Green) were monitored with immunofluorescence staining 24 hours post infection.
To investigate the mechanism of EPAC1 inhibition-mediated protection of R. australia infection, HUVEC cells treated with vehicle or ESI-09 were infected with R. australia.

EPAC2 [1] = target: T1, EPAC2 (Homo sapiens, UniProt Q8WZA2); assay: Rap1 activation assay in HEK293/EPAC2 cells; type: cell-based; conditions: HEK293/EPAC2 cells; pre-treatment with 10 μM compound
T1 construct: HEK293 cells that ectopically express full-length EPAC2 proteins; expressed in transfected cells; host or cells: HEK293
T1 sequence (Q8WZA2 whole entry, species assumed): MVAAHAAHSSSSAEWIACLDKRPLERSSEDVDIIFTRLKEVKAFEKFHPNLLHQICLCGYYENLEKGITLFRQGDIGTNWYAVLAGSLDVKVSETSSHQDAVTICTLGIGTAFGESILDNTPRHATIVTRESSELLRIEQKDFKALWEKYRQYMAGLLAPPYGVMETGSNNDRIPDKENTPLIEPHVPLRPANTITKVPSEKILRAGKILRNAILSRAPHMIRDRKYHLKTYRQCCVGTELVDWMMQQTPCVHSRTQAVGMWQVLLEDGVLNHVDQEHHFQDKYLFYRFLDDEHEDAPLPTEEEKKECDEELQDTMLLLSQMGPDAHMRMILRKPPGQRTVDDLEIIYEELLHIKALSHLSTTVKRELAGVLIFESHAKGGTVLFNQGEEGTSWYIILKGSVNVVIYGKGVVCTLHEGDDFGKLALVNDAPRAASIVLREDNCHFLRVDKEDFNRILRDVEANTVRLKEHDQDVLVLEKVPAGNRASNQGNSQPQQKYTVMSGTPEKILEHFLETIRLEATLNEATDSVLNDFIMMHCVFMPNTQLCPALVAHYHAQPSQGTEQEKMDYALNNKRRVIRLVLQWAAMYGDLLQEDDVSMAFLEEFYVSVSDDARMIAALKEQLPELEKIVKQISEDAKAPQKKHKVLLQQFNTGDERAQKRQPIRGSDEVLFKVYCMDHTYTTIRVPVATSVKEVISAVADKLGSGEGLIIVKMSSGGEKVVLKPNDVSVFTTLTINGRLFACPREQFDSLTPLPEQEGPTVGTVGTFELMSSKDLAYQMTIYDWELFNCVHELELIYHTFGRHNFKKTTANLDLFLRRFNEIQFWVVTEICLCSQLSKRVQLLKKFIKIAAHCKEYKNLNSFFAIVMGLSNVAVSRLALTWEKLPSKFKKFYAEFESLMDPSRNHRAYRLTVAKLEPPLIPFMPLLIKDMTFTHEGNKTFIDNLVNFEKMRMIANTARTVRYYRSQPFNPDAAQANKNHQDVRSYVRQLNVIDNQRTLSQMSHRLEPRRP
Protocol: (§1) FIGS. 9A-9B. Effects of EPAC2-specific antagonists on 007-AM-mediated cellular activation of Rap1. […] GTP-bound Rap1 (Rap1GTP) obtained by a Ral-GDSRBD-GST pull-down assay and total cellular Rap1 were detected by immunoblotting with Rap1-specific antibody. […] At test was used to determine statistical significance (*P<0.05).
(§2) Cellular activation of Rap1 was determined by pull-down of lysates derived from human vascular smooth muscle cell and HEK293 cells stably expressing EPAC1 or EPAC2 employing Ral-GDS-RBD-GST affinity beads as described earlier (Mei and Cheng (2005) Molecular Biosystems 1: 325-331).

[2] = system: CD4+CD25− (Tconv) proliferation in the presence Tregs; assay: In vitro Treg suppression assay of Tconv proliferation; type: cell-based, mice; conditions: assay repeated in the presence of ESI-09; compared with Epac1 KO outcome
Description: The suppressive potency of WT and Epac1 KO Tregs was examined using an in vitro assay that examines CD4+CD25− (Tconv) proliferation in the presence Tregs. Epac1 KO Tconv and WT Tconv proliferated at the same rate when cultured alone. The addition of WT Tregs suppressed the proliferation of both cell populations to the same extent, while the addition of Epac1 KO Tregs suppressed the proliferation of Epac1 KO Tconv to a much lesser degree than it did WT Tconv's.

EPAC1 = target: T2, EPAC1 (Homo sapiens, UniProt O95398); assay: Rap1 activation assay in HEK293/EPAC1 cells; type: cell-based
T2 sequence (O95398 1-923): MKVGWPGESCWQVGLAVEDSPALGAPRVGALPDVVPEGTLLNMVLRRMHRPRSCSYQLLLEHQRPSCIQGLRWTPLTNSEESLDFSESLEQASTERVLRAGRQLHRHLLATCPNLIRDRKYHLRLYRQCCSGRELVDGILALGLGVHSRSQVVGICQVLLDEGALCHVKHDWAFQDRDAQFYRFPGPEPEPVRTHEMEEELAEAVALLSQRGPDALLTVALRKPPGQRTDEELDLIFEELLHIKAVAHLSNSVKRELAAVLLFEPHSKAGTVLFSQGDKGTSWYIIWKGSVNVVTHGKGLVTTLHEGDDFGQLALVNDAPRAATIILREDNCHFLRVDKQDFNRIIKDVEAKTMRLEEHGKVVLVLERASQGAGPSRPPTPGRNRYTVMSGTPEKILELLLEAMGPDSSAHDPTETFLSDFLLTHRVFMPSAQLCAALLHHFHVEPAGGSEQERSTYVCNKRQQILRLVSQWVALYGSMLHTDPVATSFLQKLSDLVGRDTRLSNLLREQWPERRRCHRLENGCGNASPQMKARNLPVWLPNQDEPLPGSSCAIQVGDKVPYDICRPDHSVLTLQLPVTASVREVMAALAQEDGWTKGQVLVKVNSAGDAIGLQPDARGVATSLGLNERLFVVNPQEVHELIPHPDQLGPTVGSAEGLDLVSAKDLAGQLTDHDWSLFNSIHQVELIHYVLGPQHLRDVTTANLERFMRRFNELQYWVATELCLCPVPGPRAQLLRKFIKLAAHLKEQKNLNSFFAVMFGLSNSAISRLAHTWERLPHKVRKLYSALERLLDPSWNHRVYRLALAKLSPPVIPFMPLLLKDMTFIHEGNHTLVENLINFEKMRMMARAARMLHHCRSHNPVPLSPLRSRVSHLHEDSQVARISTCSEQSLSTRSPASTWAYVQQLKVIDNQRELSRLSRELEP
Protocol: as §1, §2

AsPC-1 and PANC-1 cells = assay: Cell adhesion assay on collagen I matrix; type: cell-based; conditions: pre-treatment 5 minutes, 10 μM 007-AM
Protocol: FIG. 13 ESI-09 inhibits EPAC1-mediated adhesion of PDA cells on collagen I. AsPC-1 and PANC-1 cells were stimulated with vehicle or 10 μM 007-AM after treatment with the indicated concentrations of ESI-09 for 5 minutes. Bars represent mean±s.d.
It has been recently reported that EPAC1 is over-expressed in pancreatic adenocarcinoma (Lorenz et al. (2008) Pancreas 37: 102-103). However, the functional role of EPAC1 elevation in this neoplasm is not clear. The inventors sought to employ ESI-09 to determine the role of EPAC1 signaling in pancreatic cancer. […] In order to determine if the observed impact on cell migration is EPAC1 specific, the effect of suppressing EPAC1 expression on AsPC-1 and PANC-1 migration using RNAi was examined. […] To further determine how ESI-09 inhibits PDA cell migration and invasion, a cell adhesion assay was performed using a collagen I matrix. […] To determine the in vivo anti-metastatic effect of ESI-09, MIA PaCa-2 stably expressing luciferase were orthotopically implanted into the pancreas of athymic nude mice. The mice were randomly divided into two groups and treated with vehicle or ESI-09 (50 mg/kg per day, oral gavage), respectively. The growth and metastasis of the tumors were monitored by weekly bioluminescence imaging using the IVIS bioluminescence imaging system.

EPAC2 [3] = target: T1, EPAC2; assay: Phosphorylation of Akt in HEK293/EPAC2 cells; type: cell-based; conditions: 10 μM for 5 min before 007-AM
Protocol: FIG. 10. Effect of ESI-09 on EPAC-mediated PKB phosphorylation in HEK293/EPAC1, HEK293/EPAC2, and human vascular smooth muscle (hVSMC) cells. Serum-starved HEK293/EPAC1, HEK293/EPAC2, and hVSMC cells with or without pretreatment of […] ESI-09 were stimulated with 10 μM 007-AM. Cell lysates were subjected to Western blot analysis as described under “Experimental Procedures” using anti-phospho-Ser473-specific (PKB-P473) and anti-phospho-Thr308-specific (PKB-P308) PKB antibodies.
Cellular proteins from cell lysates treated with various reagents were separated by SDS-PAGE and transferred to polyvinylidene difluoride membrane. The levels of Akt activation were probed by immuno-blotting analyses using anti-phosphate T308 PKB antibodies (1:1000) and anti-phosphate S473 PKB antibodies (1:1000). At least three independent experiments were performed for each Western blot.

SMILES: CC(C)(C)c1cc(C(=O)C(C#N)=NNc2cccc(Cl)c2)no1 [ESI-09, 3-(5-Tert-Butyl-Isoxazol-3-Yl)-2-[(3-Chlorophenyl)-Hydrazono]-3-Oxo-Propionitrile]
- number of intracellular R. australia (cellular entry) (R. australia): dramatically reduced; also recorded: suppresses
- 007-AM induced Rap1 activation (EPAC2 [1]): significant reduction
- Tregs mediated suppression of Tconv [2]: the outcome was similar
- 007-AM induced Rap1 activation (EPAC1): effective
- 007-AM induced cell adhesion (AsPC-1 and PANC-1 cells): decreased 007-AM induced cell adhesion dose-dependently; also recorded: inhibits
- EPAC2-mediated Akt phosphorylation (T308 and S473) (EPAC2 [3]): completely blocked
